Test results taken from paper PMC11488100, “PET imaging of CXCR4 expression using [^18F]AlF-NOTA-QHY-04 for hematologic malignancy and solid tumors” (Theranostics, 2024).
Bridge positions count the residues as written; N and C are the ends. Square brackets hold non-standard residues; d marks the D form. Peptide text beside a SMILES is read from it. * marks the point of attachment. NOTA = O=C(O)CN1CCN(CC(=O)O)CCN(CC(=O)*)CC1; 2Nal = N[C@@H](Cc1ccc2ccccc2c1)C(=O)O; Pen = CC(C)(S)[C@H](N)C(=O)O; 4Amb = NCc1ccc(C(=O)O)cc1; Ahx = NCCCCCC(=O)O

What was measured:
[1] = target: T1, recombinant CXCR4 protein (Homo sapiens, UniProt P61073); test: Biolayer interferometry (BLI) binding assay; settings: BLI Octet Red96, biotinylated CXCR4 on SSA biosensors, 30 °C, HBS-P buffer pH 7.4, 0.0313-1 μM, 1:1 binding model, global fit
T1 construct: purchased Novoprotein C16M
Description: The in vitro and in vivo stability of [^18F]AlF-NOTA-QHY-04 were evaluated by radio-HPLC to examine the RCP after different incubation periods. The binding affinity of the unlabeled precursor to CXCR4 was measured using the biolayer interferometry Octet Red96 system (PALL ForteBio, USA). The details are supplied in the supplemental materials. […]
human serum albumin solution were evaluated by radio-HPLC to examine the radiochemical purity after different incubation periods. For the saline study, 200 μL of [18F]AlF-NOTA-QHY-04 (0.74–3.70 MBq) was incubated at 37°C with 800 μL of saline for 1 h, 3 h and 6 h respectively, and then directly evaluated by radio -HPLC. […] Finally, the supernatant was collected and passed through a 0.22 μm membrane filter (Millipore, USA) and analyzed by radio-HPLC. […]
The processed blood supernatants and diluted urine samples were collected and passed through a 0.22 μm membrane filter (Millipore, USA) and analyzed by radio-HPLC. […]
and 1 μM NOTA-QHY-04 sample) was prepared and flowed. […] Prior to fitting, the data were baseline-subtracted and analyzed using a 1:1 binding model and the ForteBio data analysis software. Mean Kd value was determined by applying a global fit to all the data. […]

[2] = [18F]FDG PET/CT imaging in cancer patients; format: in vivo, human
Text: Potential eligible patients with newly diagnosed tumor were recruited from Shandong Cancer Hospital and institute from November 2022 to December 2023. A total of 55 patients including 8 tumor types were represented in this study (diffuse large B-cell lymphoma (DLBCL), n = 6; SCLC, n = 30; non-small cell lung cancer (NSCLC), n = 4; triple-negative breast cancer (TNBC), n = 3; pancreatic carcinoma, n = 3; glioma, n = 7; hepatocellular carcinoma (HCC), n = 1; and colorectal carcinoma (CRC), n = 1). The [^18F]AlF-NOTA-QHY-04 imaging study in patients was approved by the Institutional Review Board of Shandong Cancer Hospital and Institute (no. SDZLEC2023-256-02), and the patients provided their informed consent before inclusion in this study. In this prospective observational study, [^18F]AlF-NOTA-QHY-04 PET/CT scans should not affect the normal process of routine examinations and treatment as usual. Patients were enrolled according to the following criteria: (1) newly diagnosed cancer patients with visible tumors on conventional imaging; (2) histopathologically confirmed diagnosis; (3) age ≥ 18 years; (4) Eastern Cooperative Oncology Group (ECOG) performance status score of 0-2; (5) no prior cancer-directed therapy; (6) ability to undergo [^18F]AlF-NOTA-QHY-04 PET/CT scanning before treatment initiation. Specifically, regarding histological confirmation, we followed the standard clinical practice guidelines for each type of cancer [21]-[26], and provided detailed descriptions of our approach for obtaining histological evidence in the supplemental materials. All patients included in this study were treatment-naïve at the time of [^18F]AlF-NOTA-QHY-04 PET/CT imaging, to ensure that CXCR4 expression levels were not altered by treatments. PET/CT scans were performed within one week of pathological confirmation and carefully coordinated with the patient's clinical teams to avoid any delays in the initiation of treatment. Seven patients from them also underwent [^18F]FDG PET/CT scan. These patients fasted for at least 6 hours before [^18F]FDG PET/CT imaging. The methods for PET/CT scanning and image analysis were the same as previously reported, and detailed in the supplemental materials.
pathologists following standard diagnostic criteria, including routine H&E staining and
relevant immunohistochemical analyses. Histological confirmation was completed before
patients underwent [18F]AlF-NOTA-QHY-04 PET/CT imaging to ensure an accurate
correlation between imaging findings and tumor characteristics.
All the PET/CT scans in patients were acquired through an integrated in -line PET/CT
system (GEMINI TF Big Bore, Philips Healthcare, USA) at 60 min after intravenous
administration of 4.81 MBq/kg [18F]AlF-NOTA-QHY-04 or [18F]FDG. The
medical information system (Beijing Mozi Healthcare Technology Co., Ltd., Beijing,
China). ROIs were drawn on the transaxial images , and the maximum, mean, and peak
standard uptake value (SUV max, SUVmean, SUVpeak) were calculated automatically and used
for measuring the uptake of [18F]AlF-NOTA-QHY-04 by malignant tissues. In PET imaging
of brain tumors, T/N (tumor-to-normal brain ratio) was calculated according to the ratio of
SUVmax of tumor to SUVmean of the contralateral normal brain tissue. Two experienced
nuclear medicine physicians unaware of the patients’ clinical history analyzed the PET/CT
data first independently and then in consensus . […]
For mIF staining, the FFPE sections were baked for 2 h at 60 °C and then
deparaffinized with xylene and rehydrated through decreasing gradient ethanol. Antigen
retrieval was performed in AR6 buffer (Akoya Biosciences) in a microwave oven for 15

[3] = 10 lesions of DLBCL patient No. 32

T1 sequence (P61073 1-39 limits assumed): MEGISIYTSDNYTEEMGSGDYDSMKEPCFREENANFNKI

Row | Kd [1] [nM] | SUVmax [2, 3] | SUVmean [2, 3] | average T/N (tumor-to-normal brain ratio) ([2]; SUVmax of tumor / SUVmean of contralateral normal brain, three PCNS DLBCL and one low-grade glioma patient) | SUVmax ([2]; bone metastasis of NSCLC patient No. 35) | SUVmax ([2]; inguinal lymph node of DLBCL patient No. 32) | SUVmax ([2]; lymph node metastasis of NSCLC patient No. 35) | SUVmax ([2]; primary lesion of NSCLC patient No. 35) | average SUVmax ([2]; three PCNS DLBCL patients and one low-grade glioma patient imaged with both tracers) | Structure (SMILES)
1 | 55.2 ± 11.3 | – | – | – | – | – | – | – | – | C[C@H](NC(=O)[C@H](CCCNC(=N)N)NC(=O)CCCCCNC(=O)c1ccc(CNC(=O)CN2CCN(CC(=O)O)CCN(CC(=O)O)CC2)cc1)C(=O)N[C@@H]1CSSC(C)(C)[C@@H](C(=O)O)NC(=O)[C@H](Cc2c[nH]cn2)NC(=O)[C@H](Cc2ccc3ccccc3c2)NC(=O)[C@H](CCCNC(=N)N)NC1=O [NOTA-QHY-04] ({NOTA-4Amb-Ahx}-RA[dC]R[2Nal]H[Pen]-OH; disulfide 3-7)
2 | – | 8.00 ± 4.57 | 4.39 ± 2.36 | 1.70 ± 0.25 | 4.1 | 2.17 | 4.26 | 5.23 | 12.12 ± 2.03 | OC[C@H]1OC(O)[C@H]([18F])[C@@H](O)[C@@H]1O (stereo partly shown) [[^18F]FDG]
3 | 41.3 ± 5.5 | – | – | – | – | – | – | – | – | C[C@H](NC(=O)[C@H](CCCNC(=N)N)NC(=O)CCCCCNC(=O)c1ccc(CNC(=O)CN2CCN(CC(=O)O)CCN(CC(=O)O)CC2)cc1)C(=O)N[C@@H]1CSSC(C)(C)[C@@H](C(=O)O)NC(=O)[C@H](Cc2c[nH]cn2)NC(=O)[C@H](Cc2ccc3ccccc3c2)NC(=O)[C@H](CCCNC(=N)N)NC1=O [[^natF]AlF-NOTA-QHY-04] ({NOTA-4Amb-Ahx}-RA[dC]R[2Nal]H[Pen]-OH; disulfide 3-7)
